Measured values reported in PubChem BioAssay (NCI).
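At the GI50, growth is halved. TGI denotes the concentration required for complete inhibition of growth.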

Columns and labels:
Test in all cases: NCI-60 cell line screen, 384-well format
KM12 colon = test system: KM12 colon
OVCAR-4 ovarian = test system: OVCAR-4 ovarian
HOP-92 NSCLC = test system: HOP-92 NSCLC
SW-620 colon = test system: SW-620 colon
SN12C renal = test system: SN12C renal
LOX IMVI melanoma = test system: LOX IMVI melanoma
K-562 leukemia = test system: K-562 leukemia
MDA-MB-468 breast = test system: MDA-MB-468 breast
IGROV1 ovarian = test system: IGROV1 ovarian
HOP-62 NSCLC = test system: HOP-62 NSCLC
HT29 colon = test system: HT29 colon
OVCAR-3 ovarian = test system: OVCAR-3 ovarian
NCI-H322M lung = test system: NCI-H322M lung
EKVX NSCLC = test system: EKVX NSCLC
MOLT-4 leukemia = test system: MOLT-4 leukemia
COLO 205 colon = test system: COLO 205 colon
RPMI-8226 leukemia = test system: RPMI-8226 leukemia
ACHN renal = test system: ACHN renal
SNB-19 CNS = test system: SNB-19 CNS
SF-539 CNS = test system: SF-539 CNS
UACC-257 melanoma = test system: UACC-257 melanoma
NCI-H23 lung = test system: NCI-H23 lung
A498 renal = test system: A498 renal
PC-3 prostate = test system: PC-3 prostate
HS 578T breast = test system: HS 578T breast
SF-268 CNS = test system: SF-268 CNS
U251 glioblastoma = test system: U251 glioblastoma
BT-549 breast = test system: BT-549 breast
SK-OV-3 ovarian = test system: SK-OV-3 ovarian
NCI-H226 lung = test system: NCI-H226 lung
MDA-MB-435 melanoma = test system: MDA-MB-435 melanoma
CCRF-CEM leukemia = test system: CCRF-CEM leukemia
HCT-116 colon = test system: HCT-116 colon
NCI/ADR-RES ovarian = test system: NCI/ADR-RES ovarian
786-0 renal = test system: 786-0 renal
A549 NSCLC = test system: A549 NSCLC
SK-MEL-2 melanoma = test system: SK-MEL-2 melanoma
CAKI-1 renal = test system: CAKI-1 renal
SF-295 CNS = test system: SF-295 CNS
MALME-3M melanoma = test system: MALME-3M melanoma
MCF7 breast = test system: MCF7 breast
SK-MEL-5 melanoma = test system: SK-MEL-5 melanoma
HCT-15 colon = test system: HCT-15 colon
HCC-2998 colon = test system: HCC-2998 colon
UACC-62 melanoma = test system: UACC-62 melanoma
M14 melanoma = test system: M14 melanoma
TK-10 renal = test system: TK-10 renal
DU-145 prostate = test system: DU-145 prostate
SK-MEL-28 melanoma = test system: SK-MEL-28 melanoma
RXF 393 renal = test system: RXF 393 renal
OVCAR-8 ovarian = test system: OVCAR-8 ovarian
NCI-H460 NSCLC = test system: NCI-H460 NSCLC
SNB-75 CNS = test system: SNB-75 CNS
HL-60(TB) leukemia = test system: HL-60(TB) leukemia
NCI-H522 lung = test system: NCI-H522 lung

Cc1ccc(S(=O)(=O)Oc2ccc3sc4cccc(NCCN(C)C)c4c(=O)c3c2)cc1
GI50 (KM12 colon): 1790 nM
TGI (KM12 colon): 3230 nM
GI50 (OVCAR-4 ovarian): > 100000 nM
TGI (OVCAR-4 ovarian): > 100000 nM
GI50 (HOP-92 NSCLC): 1900 nM
TGI (HOP-92 NSCLC): 3320 nM
GI50 (SW-620 colon): 1880 nM
TGI (SW-620 colon): 3350 nM
GI50 (SN12C renal): 1910 nM
TGI (SN12C renal): 3330 nM
GI50 (LOX IMVI melanoma): 1780 nM
TGI (LOX IMVI melanoma): 3200 nM
GI50 (K-562 leukemia): 1910 nM
TGI (K-562 leukemia): 3330 nM
GI50 (MDA-MB-468 breast): 2490 nM
TGI (MDA-MB-468 breast): 3960 nM
GI50 (IGROV1 ovarian): 1650 nM
TGI (IGROV1 ovarian): 3010 nM
GI50 (HOP-62 NSCLC): 2100 nM
TGI (HOP-62 NSCLC): 3560 nM
GI50 (HT29 colon): 1710 nM
TGI (HT29 colon): 3100 nM
GI50 (OVCAR-3 ovarian): 1910 nM
TGI (OVCAR-3 ovarian): 3330 nM
GI50 (NCI-H322M lung): 2030 nM
TGI (NCI-H322M lung): 3480 nM
GI50 (EKVX NSCLC): 1850 nM
TGI (EKVX NSCLC): 3280 nM
GI50 (MOLT-4 leukemia): 1590 nM
TGI (MOLT-4 leukemia): 2950 nM
GI50 (COLO 205 colon): 1940 nM
TGI (COLO 205 colon): 3400 nM
GI50 (RPMI-8226 leukemia): 2280 nM
TGI (RPMI-8226 leukemia): 3750 nM
GI50 (ACHN renal): 1730 nM
TGI (ACHN renal): 3140 nM
GI50 (SNB-19 CNS): 2080 nM
TGI (SNB-19 CNS): 3540 nM
GI50 (SF-539 CNS): 1860 nM
TGI (SF-539 CNS): 3290 nM
GI50 (UACC-257 melanoma): 1890 nM
TGI (UACC-257 melanoma): 3300 nM
GI50 (NCI-H23 lung): 1990 nM
TGI (NCI-H23 lung): 3420 nM
GI50 (A498 renal): > 100000 nM
TGI (A498 renal): > 100000 nM
GI50 (PC-3 prostate): 1810 nM
TGI (PC-3 prostate): 3220 nM
GI50 (HS 578T breast): 1920 nM
TGI (HS 578T breast): 3350 nM
GI50 (SF-268 CNS): 2200 nM
TGI (SF-268 CNS): 3670 nM
GI50 (U251 glioblastoma): 2070 nM
TGI (U251 glioblastoma): 3540 nM
GI50 (BT-549 breast): 1860 nM
TGI (BT-549 breast): 3280 nM
GI50 (SK-OV-3 ovarian): 1640 nM
TGI (SK-OV-3 ovarian): 3020 nM
GI50 (NCI-H226 lung): 1700 nM
TGI (NCI-H226 lung): 3080 nM
GI50 (MDA-MB-435 melanoma): 1780 nM
TGI (MDA-MB-435 melanoma): 3180 nM
GI50 (CCRF-CEM leukemia): 1700 nM
TGI (CCRF-CEM leukemia): 3110 nM
GI50 (HCT-116 colon): 1830 nM
TGI (HCT-116 colon): 3300 nM
GI50 (NCI/ADR-RES ovarian): 1830 nM
TGI (NCI/ADR-RES ovarian): 3240 nM
GI50 ([…]-0 renal): > 100000 nM
TGI (786-0 renal): > 100000 nM
GI50 (A549 NSCLC): 1850 nM
TGI (A549 NSCLC): 3340 nM
GI50 (SK-MEL-2 melanoma): 1990 nM
TGI (SK-MEL-2 melanoma): 3420 nM
GI50 (CAKI-1 renal): 1650 nM
TGI (CAKI-1 renal): 3040 nM
GI50 (SF-295 CNS): > 100000 nM
TGI (SF-295 CNS): > 100000 nM
GI50 (MALME-3M melanoma): 1890 nM
TGI (MALME-3M melanoma): 3310 nM
GI50 (MCF7 breast): 1380 nM
TGI (MCF7 breast): 2710 nM
GI50 (SK-MEL-5 melanoma): 1290 nM
TGI (SK-MEL-5 melanoma): 2580 nM
GI50 (HCT-15 colon): > 100000 nM
TGI (HCT-15 colon): > 100000 nM
GI50 (HCC-2998 colon): 1240 nM
TGI (HCC-2998 colon): 2510 nM
GI50 (UACC-62 melanoma): 1940 nM
TGI (UACC-62 melanoma): 3380 nM
GI50 (M14 melanoma): 2050 nM
TGI (M14 melanoma): 3490 nM
GI50 (TK-10 renal): > 100000 nM
TGI (TK-10 renal): > 100000 nM
GI50 (DU-145 prostate): 1970 nM
TGI (DU-145 prostate): 3430 nM
GI50 (SK-MEL-28 melanoma): 1950 nM
TGI (SK-MEL-28 melanoma): 3380 nM
GI50 (RXF 393 renal): 1930 nM
TGI (RXF 393 renal): 3360 nM
GI50 (OVCAR-8 ovarian): 2110 nM
TGI (OVCAR-8 ovarian): 3590 nM
GI50 (NCI-H460 NSCLC): 1720 nM
TGI (NCI-H460 NSCLC): 3220 nM
GI50 (SNB-75 CNS): 2090 nM
TGI (SNB-75 CNS): 3530 nM
GI50 (HL-60(TB) leukemia): 787 nM
TGI (HL-60(TB) leukemia): 2060 nM
GI50 (NCI-H522 lung): > 100000 nM
TGI (NCI-H522 lung): > 100000 nM
